Experimental data reported in ChEMBL document CHEMBL5360574, “Optimization of potent, selective and orally bioavailable biphenyl scaffold as FABP4 inhibitors for anti-inflammation” (Eur J Med Chem, 2023).
Activity calls are given as the source filed them. No cut-off for these calls is given here.

Key:
[1] = biological target: Fatty acid-binding protein, adipocyte (Homo sapiens, UniProt P15090); assay: Displacement of 1,8-ANS from FABP4 (unknown origin) assessed as inhibition constant by fluorescence based analysis
Fatty acid-binding protein, adipocyte, sequence (P15090 whole entry): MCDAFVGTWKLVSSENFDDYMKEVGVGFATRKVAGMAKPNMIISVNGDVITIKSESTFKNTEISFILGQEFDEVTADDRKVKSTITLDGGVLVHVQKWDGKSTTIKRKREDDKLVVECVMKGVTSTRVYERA

[2] = biological target: Fatty acid-binding protein, heart (Homo sapiens, UniProt P05413); assay: Displacement of 1,8-ANS from FABP3 (unknown origin) assessed as inhibition constant by fluorescence based analysis
Fatty acid-binding protein, heart, sequence (P05413 whole entry): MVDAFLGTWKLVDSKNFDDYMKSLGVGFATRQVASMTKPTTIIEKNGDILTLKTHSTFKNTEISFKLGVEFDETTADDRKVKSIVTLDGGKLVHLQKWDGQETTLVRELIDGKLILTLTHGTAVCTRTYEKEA

3T3-L1 = assay: Cytotoxicity against mouse 3T3-L1 cells assessed as reduction in cell growth at 100 uM measured after 24 hrs by CCK-8 assay; type: toxicity, cell-based; conditions: 3t3-l1, 24 h
THP-1 [3] = assay: Cytotoxicity against human THP-1 cells assessed as reduction in cell growth at 80 uM measured after 24 hrs by CCK-8 assay; type: toxicity, cell-based; conditions: thp-1, 24 h
Mus musculus [4] = assay: Antiinflammatory activity in LPS-induced acute inflammation C57BL/6J mouse model assessed as reduction in MCP-1 level in serum at 50 mg/kg, po qd via gavage administered for 4 days followed by LPS induction; type: functional, organism-based; conditions: time 4.0 day
Mus musculus [5] = assay: Antiinflammatory activity in LPS-induced acute inflammation C57BL/6J mouse model assessed as reduction in ALT level in serum at 50 mg/kg, po qd via gavage administered for 4 days followed by LPS induction; type: functional, organism-based; conditions: time 4.0 day
[6] = Toxicity in LPS-induced acute inflammation C57BL/6J mouse model assessed as change in body weight at 50 mg/kg, po qd via gavage administered for 4 days followed by LPS induction; type: organism-based; conditions: in vivo, 96 h, time 4 day
[7] = Toxicity in LPS-induced acute inflammation C57BL/6J mouse model assessed as effect on liver damage at 50 mg/kg, po qd via gavage administered for 4 days followed by LPS induction by hematoxylin and eosin staining based microscopic analysis; type: organism-based; conditions: in vivo, 96 h, time 4 day
[8] = Toxicity in LPS-induced acute inflammation C57BL/6J mouse model assessed as effect on spleen damage at 50 mg/kg, po qd via gavage administered for 4 days followed by LPS induction by hematoxylin and eosin staining based microscopic analysis; type: organism-based; conditions: in vivo, 96 h, time 4 day
THP-1 [9] = assay: Antiinflammatory activity in LPS-induced human THP-1 cells assessed as reduction in MCP-1 mRNA expression at 25 uM incubated for 24 hrs by RT-PCR analysis; type: functional, cell-based
Mus musculus [10] = assay: Antiinflammatory activity in LPS-induced acute inflammation C57BL/6J mouse model assessed as reduction in AST level in serum at 50 mg/kg, po qd via gavage administered for 4 days followed by LPS induction; type: functional, organism-based; conditions: time 4.0 day
[11] = AUC(0 to 24 hrs) in ICR mouse at 25 mg/kg, po measured upto 24 hrs by LC-MS/MS analysis; type: ADME, organism-based; design: time < 24 hrs, dose 25 mg/kg, route po; conditions: in vivo
[12] = Metabolic stability in mouse liver microsomes assessed as half life at 0.1 uM measured upto 60 mins in presence of NADPH by LC-MS/MS analysis; type: ADME, Microsome
[13] = MRT in ICR mouse at 3 mg/kg, iv measured upto 24 hrs by LC-MS/MS analysis; type: ADME, organism-based; conditions: in vivo
[14] = Cmax in ICR mouse at 25 mg/kg, po measured upto 24 hrs by LC-MS/MS analysis; type: ADME, organism-based; design: dose 25 mg/kg, time < 24 hrs, route po; conditions: in vivo
[15] = Metabolic stability in mouse liver microsomes assessed as intrinsic clearance at 0.1 uM measured per gram protein measured upto 60 mins in presence of NADPH by LC-MS/MS analysis; type: ADME, Microsome; conditions: 1 h
[16] = AUC(0 to 24 hrs) in ICR mouse at 3 mg/kg, iv measured upto 24 hrs by LC-MS/MS analysis; type: ADME, organism-based; design: dose 3 mg/kg, time < 24 hrs, route iv; conditions: in vivo
[17] = Half life in ICR mouse at 25 mg/kg, po measured upto 24 hrs by LC-MS/MS analysis; type: ADME, organism-based; conditions: in vivo
[18] = MRT in ICR mouse at 25 mg/kg, po measured upto 24 hrs by LC-MS/MS analysis; type: ADME, organism-based; conditions: in vivo
[19] = Clearance in ICR mouse at 3 mg/kg, iv measured upto 24 hrs by LC-MS/MS analysis; type: ADME, organism-based; conditions: in vivo
[20] = Half life in ICR mouse at 3 mg/kg, iv measured upto 24 hrs by LC-MS/MS analysis; type: ADME, organism-based; conditions: in vivo
[21] = Volume of distribution at steady state in ICR mouse at 3 mg/kg, iv measured upto 24 hrs by LC-MS/MS analysis; type: ADME, organism-based; conditions: in vivo, read-out: Vdss
[22] = Oral bioavailability in ICR mouse at 25 mg/kg measured upto 24 hrs by LC-MS/MS analysis; type: ADME, organism-based; conditions: in vivo
[23] = Tmax in ICR mouse at 25 mg/kg, po measured upto 24 hrs by LC-MS/MS analysis; type: ADME, organism-based; conditions: in vivo
THP-1 [24] = assay: Antiinflammatory activity in LPS-induced human THP-1 cells assessed as inhibition of MCP-1 secretion at 1 uM pre-incubated with compound for 18 hrs followed by LPS induction measured after 6 hrs by ELISA method; type: functional, cell-based; conditions: time 24.0 hrs
[25] = Metabolic stability in mouse liver microsomes assessed as intrinsic clearance at 0.1 uM measured upto 60 mins in presence of NADPH by LC-MS/MS analysis; type: ADME, Microsome; conditions: 1 h

## CC(C(=O)O)c1cccc(-c2cccc(Cl)c2-c2ccc3c(c2)CCO3)c1 (centres undefined)
[1]
  Ki: 1470 nM

## Cc1ccc(-c2cccc(Cl)c2-c2ccc3c(c2)CCO3)cc1C(=O)O
[1]
  Ki: 320 nM

## O=C(O)Cc1cccc(-c2cccc(Cl)c2-c2ccc3c(c2)CCO3)c1
[1]
  Ki: 350 nM

## O=C(O)C1CCc2ccc(-c3cccc(Cl)c3OCC3CCC3)cc21 (centres undefined)
[1]
  Ki: 750 nM

## Nc1ccc(-c2cccc(Cl)c2-c2ccc3c(c2)CCO3)cc1C(=O)O
[1]
  Ki: 430 nM

## O=C(O)c1ccccc1Nc1cccc(Cl)c1-c1ccc2c(c1)CCO2
[2]
  Ki: 920 nM
3T3-L1
  Activity: Non-Toxic
THP-1 [3]
  Activity: Non-Toxic

## O=C(O)C1CCc2ccc(-c3cccc(Cl)c3-c3ccc4c(c3)OCO4)cc21 (centres undefined)
[1]
  Ki: 790 nM

## O=C(O)C1CCc2ccc(-c3cccc(Cl)c3OCC3CCCCC3)cc21 (centres undefined)
[1]
  Ki: 1800 nM

## O=C(O)C1CCc2ccc(-c3cccc(Cl)c3-c3ccc4ocnc4c3)cc21 (centres undefined)
[1]
  Ki: 740 nM

## CCc1c(-c2ccccc2)c(-c2ccccc2)nn1-c1ccccc1-c1cccc(OCC(=O)O)c1
Mus musculus [4]
  Activity: Active
Mus musculus [5]
  Activity: Active
[6]
  Activity: Non-Toxic
[7]
  Activity: Non-Toxic
[8]
  Activity: Non-Toxic
THP-1 [9]
  Activity: Active
Mus musculus [10]
  Activity: Active
3T3-L1
  Activity: Non-Toxic
THP-1 [3]
  Activity: Non-Toxic

## O=C(O)C1CCc2ccc(-c3cccc(Cl)c3-c3ccc4occc4c3)cc21 (centres undefined)
[1]
  Ki: 690 nM

## O=C(O)c1cc(-c2cccc(Cl)c2-c2ccc3c(c2)CCO3)ccc1O
[1]
  Ki: 280 nM

## O=C(O)c1cc(-c2cccc(Cl)c2-c2ccc3c(c2)OCO3)ccc1C(F)(F)F
[1]
  Ki: 1690 nM

## O=C(O)c1cc(-c2cccc(Cl)c2-c2ccc3nonc3c2)ccc1C(F)(F)F
[1]
  Ki: 920 nM

## O=C(O)CCc1cccc(-c2cccc(Cl)c2-c2ccc3c(c2)CCO3)c1
[1]
  Ki: 1810 nM

## O=C(O)C1CCc2ccc(-c3cccc(Cl)c3OC3CCC3)cc21 (centres undefined)
[1]
  Ki: 790 nM

## O=C(O)c1cc(-c2cccc(Cl)c2-c2ccc3c(c2)CCO3)ccc1C(F)(F)F
[11]
  AUC(0-t) at 24 h: 26800 ng·h/mL
Mus musculus [4]
  Activity: Active
[12]
  half-life at 0.1 µM: 8.9 h
[13]
  MRT: 4.04 h
Mus musculus [5]
  Activity: Active
[6]
  Activity: Non-Toxic
[7]
  Activity: Non-Toxic
[14]
  Cmax: 15500 ng/mL
[15]
  CLH: 3.94 mL/min/g
[16]
  AUC(0-t) at 24 h: 3600 ng·h/mL
[8]
  Activity: Non-Toxic
[17]
  half-life: 3.43 h
[18]
  MRT: 5.3 h
[19]
  clearance: 12.5 mL/min/kg
[20]
  half-life: 5.64 h
THP-1 [9]
  Activity: Active
[1]
  Ki: 510 nM
Mus musculus [10]
  Activity: Active
[21]
  Vd: 3.32 L/kg
[22]
  bioavailability: 89.4%
[2]
  Ki: 33000 nM
3T3-L1
  Activity: Non-Toxic
[23]
  Tmax: 0.25 h
THP-1 [3]
  Activity: Non-Toxic
THP-1 [24]
  Activity: Active
[25]
  CLH: 0.266 mL/min

## O=C(O)c1cc(-c2cccc(Cl)c2-c2ccc3c(c2)CCO3)ccc1[N+](=O)[O-]
[1]
  Ki: 300 nM

## O=C(O)c1cc(O)cc(-c2cccc(Cl)c2-c2ccc3c(c2)CCO3)c1
[1]
  Ki: 550 nM

## CS(=O)(=O)Nc1ccc(-c2cccc(Cl)c2-c2ccc3c(c2)CCO3)cc1C(=O)O
[1]
  Ki: 330 nM

## O=C(O)c1cccc(-c2cccc(Cl)c2-c2ccc3c(c2)CCO3)c1
[1]
  Ki: 480 nM

## O=C(O)C1CCc2ccc(-c3cccc(Cl)c3-c3ccc4c(c3)CCO4)cc21 (centres undefined)
[12]
  half-life at 0.1 µM: 0.883 h
[15]
  CLH: 39.4 mL/min/g
THP-1 [9]
  Activity: Active
[1]
  Ki: 580 nM
[2]
  Ki: 18100 nM
3T3-L1
  Activity: Non-Toxic
THP-1 [3]
  Activity: Non-Toxic
[25]
  CLH: 2.66 mL/min

## O=C(O)c1cc(-c2cccc(Cl)c2-c2ccc3occc3c2)ccc1C(F)(F)F
[1]
  Ki: 720 nM

## O=C(O)C1CCc2ccc(-c3cccc(Cl)c3-c3ccc4nonc4c3)cc21 (centres undefined)
[1]
  Ki: 2370 nM

## O=C(O)C1CCc2ccc(-c3cccc(Cl)c3OCC3CCCC3)cc21 (centres undefined)
[1]
  Ki: 1730 nM

## O=C(O)C1CCc2ccc(-c3cccc(Cl)c3-c3ccc4[nH]ncc4c3)cc21 (centres undefined)
[1]
  Ki: 760 nM

## O=C(O)C1CCc2ccc(-c3cccc(Cl)c3OCc3ccccc3)cc21 (centres undefined)
[1]
  Ki: 1320 nM
